Results from the supplement of paper PMC10307832.

Legend:
Assay in all cases: relative viability (nuclei count vs DMSO), 5 days (fraction); higher = more cells survive
[1] = tested on: NCI-H1793
Outline: (§1)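 Relative viability equals treated-well nuclei counts divided by vehicle-well nuclei counts. Counts came from 4× images of lung cancer cell lines grown in 1536-well plates for 5 days after pin-tool dosing on the day after seeding. Dosing used one drug alone or a fixed anchor-drug dose plus five library-drug doses (not always all listed) in √10 steps, and values are medians of duplicate plates.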

[2] = tested on: NCI-H1355
Outline: as §1

[3] = tested on: NCI-H2085
Outline: as §1

[4] = tested on: BEN
Outline: as §1

[5] = tested on: NCI-H838
Outline: as §1

[6] = tested on: NCI-H1651
Outline: as §1

[7] = tested on: COR-L23
Outline: as §1

[8] = tested on: NCI-H441
Outline: as §1

[9] = tested on: LU99A
Outline: as §1

[10] = tested on: NCI-H1650
Outline: as §1

[11] = tested on: NCI-H2023
Outline: as §1

[12] = tested on: NCI-H460
Outline: as §1

[13] = tested on: NCI-H2342
Outline: as §1

[14] = tested on: NCI-H1437
Outline: as §1

[15] = tested on: NCI-H358
Outline: as §1

[16] = tested on: NCI-H1734
Outline: as §1

[17] = tested on: HCC-366
Outline: as §1

[18] = tested on: CAL-12T
Outline: as §1

[19] = tested on: LOU-NH91
Outline: as §1

[20] = tested on: NCI-H1975
Outline: as §1

[21] = tested on: SK-LU-1
Outline: as §1

SMILES: O=c1cc(N2CCOCC2)oc2c(-c3cccc4c3sc3ccccc34)cccc12 + O=C(CCCCCCC(=O)Nc1ccccc1)NO [Vorinostat] (partner 1 µM)
- relative viability ([1]; first compound 0.01 µM): 0.771
- relative viability ([1]; first compound 0.03162 µM): 0.612
- relative viability ([1]; first compound 0.1 µM): 0.672
- relative viability ([1]; first compound 0.3162 µM): 0.76
- relative viability ([1]; first compound 1 µM): 0.658
- relative viability ([2]; first compound 0.01 µM): 0.681
- relative viability ([2]; first compound 0.03162 µM): 0.613
- relative viability ([2]; first compound 0.1 µM): 0.598
- relative viability ([2]; first compound 0.3162 µM): 0.663
- relative viability ([2]; first compound 1 µM): 0.598
- relative viability ([3]; first compound 0.01 µM): 0.779
- relative viability ([3]; first compound 0.03162 µM): 0.783
- relative viability ([3]; first compound 0.1 µM): 0.755
- relative viability ([3]; first compound 0.3162 µM): 0.788
- relative viability ([3]; first compound 1 µM): 0.753
- relative viability ([4]; first compound 0.01 µM): 0.56
- relative viability ([4]; first compound 0.03162 µM): 0.627
- relative viability ([4]; first compound 0.1 µM): 0.49
- relative viability ([4]; first compound 0.3162 µM): 0.583
- relative viability ([4]; first compound 1 µM): 0.655
- relative viability ([5]; first compound 0.01 µM): 0.752
- relative viability ([5]; first compound 0.03162 µM): 0.716
- relative viability ([5]; first compound 0.1 µM): 0.686
- relative viability ([5]; first compound 0.3162 µM): 0.657
- relative viability ([5]; first compound 1 µM): 0.698
- relative viability ([6]; first compound 0.01 µM): 0.55
- relative viability ([6]; first compound 0.03162 µM): 0.556
- relative viability ([6]; first compound 0.1 µM): 0.528
- relative viability ([6]; first compound 0.3162 µM): 0.567
- relative viability ([6]; first compound 1 µM): 0.489
- relative viability ([7]; first compound 0.01 µM): 0.578
- relative viability ([7]; first compound 0.03162 µM): 0.503
- relative viability ([7]; first compound 0.1 µM): 0.473
- relative viability ([7]; first compound 0.3162 µM): 0.424
- relative viability ([7]; first compound 1 µM): 0.54
- relative viability ([8]; first compound 0.01 µM): 0.731
- relative viability ([8]; first compound 0.03162 µM): 0.704
- relative viability ([8]; first compound 0.1 µM): 1.09
- relative viability ([8]; first compound 0.3162 µM): 0.829
- relative viability ([8]; first compound 1 µM): 0.724
- relative viability ([9]; first compound 0.01 µM): 0.489
- relative viability ([9]; first compound 0.03162 µM): 0.491
- relative viability ([9]; first compound 0.1 µM): 0.446
- relative viability ([9]; first compound 0.3162 µM): 0.512
- relative viability ([9]; first compound 1 µM): 0.491
- relative viability ([10]; first compound 0.01 µM): 0.485
- relative viability ([10]; first compound 0.03162 µM): 0.692
- relative viability ([10]; first compound 0.1 µM): 0.547
- relative viability ([10]; first compound 0.3162 µM): 0.631
- relative viability ([10]; first compound 1 µM): 0.49
- relative viability ([11]; first compound 0.01 µM): 0.733
- relative viability ([11]; first compound 0.03162 µM): 0.76
- relative viability ([11]; first compound 0.1 µM): 0.786
- relative viability ([11]; first compound 0.3162 µM): 0.55
- relative viability ([11]; first compound 1 µM): 0.677
- relative viability ([12]; first compound 0.01 µM): 0.68
- relative viability ([12]; first compound 0.03162 µM): 0.773
- relative viability ([12]; first compound 0.1 µM): 0.957
- relative viability ([12]; first compound 0.3162 µM): 0.655
- relative viability ([12]; first compound 1 µM): 0.75
- relative viability ([13]; first compound 0.01 µM): 0.708
- relative viability ([13]; first compound 0.03162 µM): 0.828
- relative viability ([13]; first compound 0.1 µM): 0.748
- relative viability ([13]; first compound 0.3162 µM): 0.729
- relative viability ([13]; first compound 1 µM): 0.637
- relative viability ([14]; first compound 0.01 µM): 0.822
- relative viability ([14]; first compound 0.03162 µM): 0.874
- relative viability ([14]; first compound 0.1 µM): 0.866
- relative viability ([14]; first compound 0.3162 µM): 0.784
- relative viability ([14]; first compound 1 µM): 0.806
- relative viability ([15]; first compound 0.01 µM): 0.676
- relative viability ([15]; first compound 0.03162 µM): 0.619
- relative viability ([15]; first compound 0.1 µM): 0.75
- relative viability ([15]; first compound 0.3162 µM): 0.702
- relative viability ([15]; first compound 1 µM): 0.689
- relative viability ([16]; first compound 0.01 µM): 0.839
- relative viability ([16]; first compound 0.03162 µM): 0.819
- relative viability ([16]; first compound 0.1 µM): 0.631
- relative viability ([16]; first compound 0.3162 µM): 0.773
- relative viability ([16]; first compound 1 µM): 0.819
- relative viability ([17]; first compound 0.01 µM): 0.386
- relative viability ([17]; first compound 0.03162 µM): 0.362
- relative viability ([17]; first compound 0.1 µM): 0.339
- relative viability ([17]; first compound 0.3162 µM): 0.395
- relative viability ([17]; first compound 1 µM): 0.371
- relative viability ([18]; first compound 0.01 µM): 0.967
- relative viability ([18]; first compound 0.03162 µM): 0.828
- relative viability ([18]; first compound 0.1 µM): 0.727
- relative viability ([18]; first compound 0.3162 µM): 0.748
- relative viability ([18]; first compound 1 µM): 0.618
- relative viability ([19]; first compound 0.01 µM): 0.623
- relative viability ([19]; first compound 0.03162 µM): 0.881
- relative viability ([19]; first compound 0.1 µM): 0.894
- relative viability ([19]; first compound 0.3162 µM): 1.04
- relative viability ([19]; first compound 1 µM): 0.904
- relative viability ([20]; first compound 0.01 µM): 0.672
- relative viability ([20]; first compound 0.03162 µM): 0.69
- relative viability ([20]; first compound 0.1 µM): 0.733
- relative viability ([20]; first compound 0.3162 µM): 0.641
- relative viability ([20]; first compound 1 µM): 0.368
- relative viability ([21]; first compound 0.01 µM): 0.79
- relative viability ([21]; first compound 0.03162 µM): 0.707
- relative viability ([21]; first compound 0.1 µM): 0.751
- relative viability ([21]; first compound 0.3162 µM): 0.778
- relative viability ([21]; first compound 1 µM): 0.733
